For 33 molecules, IC50 results are on record in patent US20050130989A1, “N-arylheteroaromatic products compositions containing them and use thereof” (Aventis Pharma S. A., priority 2003, published 2005).

Experiment [1] concerns the target T1, tubulin (Sus scrofa, UniProt P02550+P02554).
T1 construct: Tubulin is purified from pig brain according to published methods; from tissue; host or cells: pig brain
The experiment can be described thus: Evaluation of the inhibition of tubulin polymerization (turbidimetry). It counts as biochemical, pig. The settings on record: tubulin 10 μm (1 mg/ml), 37° C., turbidity at 350 nm; concentration that inhibits the rate of polymerization by 50%; read-out: Inhibition of tubulin polymerization IC 50 (μm). Summed up:
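Pig brain tubulin (>95% pure), 10 μm in MES pH 6.8/30% glycerol buffer plus 1 mM GTP and 6 mM MgCl2, with compound at 0.5–10 μm added before polymerization. Polymerization triggered by shift from 6° C to 37° C, followed by turbidity at 350 nm; IC50 is 50% inhibition of polymerization rate.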

Experiment [2] relates to HCT116 cells. The experiment can be described thus: Inhibition of proliferation of the human colon tumor line HCT116 ([14C]-thymidine incorporation). It counts as cell-based. The settings on record: Homo sapiens, read-out: Inhibition of HCT116 proliferation IC 50 (μm). The method in brief: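 HCT116 cells (5000/well) in DMEM with 10% fetal calf serum incubated 48 h at 37° C with [14C]-thymidine (0.1 μCi/well) and compound up to 10 μm (DMSO ≤0.5%). Incorporated radioactivity counted; IC50 is concentration cutting radioactivity by 50% versus untreated control.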

Setting [3] is: HCT-116, 48 h, 48 hours at 37° C.

Counter-ions that a name gives are not always drawn. Like-named read-outs stand apart in the source and are kept apart here.

T1 sequence (P02550 whole entry): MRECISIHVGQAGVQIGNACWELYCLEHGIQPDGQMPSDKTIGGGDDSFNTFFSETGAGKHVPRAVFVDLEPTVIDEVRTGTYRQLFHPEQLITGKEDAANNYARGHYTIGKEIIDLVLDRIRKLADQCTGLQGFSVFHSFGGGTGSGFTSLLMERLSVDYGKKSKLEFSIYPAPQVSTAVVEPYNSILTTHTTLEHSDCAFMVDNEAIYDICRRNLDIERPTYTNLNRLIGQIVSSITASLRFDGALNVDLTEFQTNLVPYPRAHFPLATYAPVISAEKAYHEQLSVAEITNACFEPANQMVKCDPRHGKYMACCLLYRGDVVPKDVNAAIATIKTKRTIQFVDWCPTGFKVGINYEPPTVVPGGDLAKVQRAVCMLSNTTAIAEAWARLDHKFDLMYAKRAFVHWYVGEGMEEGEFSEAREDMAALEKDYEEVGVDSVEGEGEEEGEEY
T1 sequence (P02554 whole entry): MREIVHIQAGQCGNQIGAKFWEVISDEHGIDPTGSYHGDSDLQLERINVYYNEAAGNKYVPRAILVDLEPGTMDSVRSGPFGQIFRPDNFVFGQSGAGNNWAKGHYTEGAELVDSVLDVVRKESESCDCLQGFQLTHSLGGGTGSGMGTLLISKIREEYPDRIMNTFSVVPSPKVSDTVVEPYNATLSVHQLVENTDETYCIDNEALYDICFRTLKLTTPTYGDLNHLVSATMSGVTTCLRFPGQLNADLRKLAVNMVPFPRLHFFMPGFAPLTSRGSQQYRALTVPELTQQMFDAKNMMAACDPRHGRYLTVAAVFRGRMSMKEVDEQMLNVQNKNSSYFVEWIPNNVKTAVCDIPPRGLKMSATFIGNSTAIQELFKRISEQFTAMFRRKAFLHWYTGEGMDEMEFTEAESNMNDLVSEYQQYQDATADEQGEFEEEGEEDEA

Consider `Cc1cc(C(=O)N2CCN(c3ccccc3C)CC2)n(-c2ccc(F)cc2)n1` [3/147], for which the IC50 is 7000 nM in experiment [1] and 1290 nM in experiment [2] (setting [3]).
The matching figures for `Cc1cc(C(=O)N2CCN(c3cccc(C)c3C)CC2)n(-c2ccc(F)cc2)n1` [3/148]: 1500 nM and 198 nM.
For the molecule `Cc1cccc(N2CCN(C(=O)c3cc(C)nn3-c3ccccc3)CC2)n1` [3/150], the IC50 in experiment [1] came to 1100 nM; in experiment [2] (setting [3]) it was 5.5 nM.
For `Cc1cc(C(=O)N2CCN(c3ccc(C)c(Cl)c3)CC2)n(-c2ccccc2)n1` [3/151] the same measures were 1700 nM and 22.1 nM.
The matching figures for `Cc1cc(C(=O)N2CCN(c3cccc(F)c3)CC2)n(-c2ccccc2)n1` [3/152]: 800 nM and 6.3 nM.
For the molecule `Cc1cc(C(=O)N2CCN(c3cccnc3)CC2)n(-c2ccccc2)n1` [3/153], the IC50 in experiment [1] worked out at 2200 nM; in experiment [2] (setting [3]) it was 22.4 nM.
For `O=C(c1ccnn1-c1ccccc1)N1CCN(c2cccc(Cl)c2)CC1` [Example 5, [4-(3-Chlorophenyl)piperazin-1-yl](2-phenyl-2H-pyrazol-3-yl)methanone] the same measures were 1200 nM and 4.1 nM.
Turning to `Cc1cc(C(=O)N2CCN(c3cc(Cl)cc(Cl)c3)CC2)n(-c2ccccc2)n1` [Example E2, [4-(3,5-Dichlorophenyl)piperazin-1-yl](5-methyl-2-phenyl-2H-pyrazol-3-yl)methanone], the values for the IC50 in experiment [1] and in experiment [2] (setting [3]) were 1500 nM and 0.1 nM, respectively.
For `Cc1cc(C(=O)N2CCN(c3cccc(Cl)n3)CC2)n(-c2ccccc2)n1` [Example E4, [4-(6-Chloropyrid-2-yl)piperazin-1-yl](5-methyl-2-phenyl-2H-pyrazol-3-yl)-methanone] the same measures were 1300 nM and 4.7 nM.
On to `Cc1cc(C(=O)N2CCN(c3cccc([N+](=O)[O-])c3)CC2)n(-c2ccccc2)n1` [Example E5, [4-(3-Nitrophenyl)piperazin-1-yl](5-methyl-2-phenyl-2H-pyrazol-3-yl)-methanone], for which the IC50 in experiment [1] amounted to 800 nM; in experiment [2] (setting [3]), 3 nM.
In the case of `Cc1cc(C(=S)N2CCN(c3cccc(Cl)c3)CC2)n(-c2ccccc2)n1` [Example E7, [4-(3-Chlorophenyl)piperazin-1-yl](5-methyl-2-phenyl-2H-pyrazol-3-yl)-methanethione], the IC50 in experiment [1] amounted to 1400 nM; in experiment [2] (setting [3]) it was 11 nM.
Turning to `Cc1cc(C(=O)N2CCN(c3cccc(O)c3)CC2)n(-c2ccccc2)n1` [Example E13, [4-(3-Hydroxyphenyl)piperazin-1-yl](5-methyl-2-phenyl-2H-pyrazol-3-yl)-methanone], the IC50 in experiment [1] is 1000 nM; in experiment [2] (setting [3]), 14.2 nM.
Take `Cc1cc(CN2CCN(c3cccc(Cl)c3)CC2)n(-c2ccccc2)n1` [Example E14, [4-(3-chlorophenyl)piperazin-1-yl](5-methyl-2-phenyl-2H-pyrazol-3-yl)methane]: the IC50 in experiment [1] stood at 12000 nM; in experiment [2] (HCT-116, 48 hours at 37° C.), 3080 nM.
Consider `Cc1cc(C(=O)N2CCN(c3ccnc4ccccc34)CC2)n(-c2ccccc2)n1` [Example E17, (5-Methyl-2-phenyl-2H-pyrazol-3-yl)(4-quinolin-4-ylpiperazin-1-yl)methanone], for which the IC50 in experiment [1] was 1500 nM; in experiment [2] (setting [3]), 8.5 nM.
The matching figures for `CC(=O)Nc1cccc(N2CCN(C(=O)c3cc(C)nn3-c3ccccc3)CC2)c1` [Example E18, N-{3-[4-(5-methyl-2-phenyl-2H-pyrazole-3-carbonyl)piperazin-1-yl]phenyl}-acetamide]: 1200 nM and 59.5 nM.
The matching figures for `COc1cc(OC)cc(N2CCN(C(=O)c3cc(C)nn3-c3ccccc3)CC2)c1` [Example E20, [4-(3,5-Dimethoxyphenyl)piperazin-1-yl](5-methyl-2-phenyl-2H-pyrazol-3-yl)-methanone]: 290 nM and 1.5 nM.
Take `Cc1cc(C(=O)N2CCN(c3ccccc3)CC2)n(-c2ccccn2)n1` [Example E21, (5-Methyl-2-pyrid-2-yl-2H-pyrazol-3-yl)(4-phenylpiperazin-1-yl)methanone]: the results for the IC50 in experiment [1] and in experiment [2] (setting [3]) were 9500 nM and 198 nM, respectively.
The matching figures for `Cc1cc(C(=O)N2CCN(c3cccc(Cl)c3)CC2)n(-c2ccccn2)n1` [Example E22, [4-(3-Chlorophenyl)piperazin-1-yl](5-methyl-2-pyrid-2-yl-2H-pyrazol-3-yl)-methanone]: 1900 nM and 6.4 nM.
Turning to `Cc1cc(C(=O)N2CCN(c3cccc(-c4ccccc4)c3)CC2)n(-c2ccccc2)n1` [Example E24, [4-(Biphenyl-3-yl)piperazin-1-yl)(5-methyl-2-phenyl-2H-pyrazol-3-yl)methanone], the values for the IC50 in experiment [1] and in experiment [2] (setting [3]) were 1700 nM and 312 nM, respectively.
`Cc1cc(C(=O)N2CCN(c3cccc(S(C)(=O)=O)c3)CC2)n(-c2ccccc2)n1` [Example E26, [4-(3-Methanesulfonylphenyl)piperazin-1-yl](5-methyl-2-phenyl-2H-pyrazol-3-yl)methanone]: the values for the IC50 in experiment [1] and in experiment [2] (setting [3]) were 6400 nM and 135 nM, respectively.
For `CCOC(=O)c1cccc(N2CCN(C(=O)c3cc(C)nn3-c3ccccc3)CC2)c1` [Example E28, ethyl ester of 3-[4-(5-methyl-2-phenyl-2H-pyrazole-3-carbonyl)piperazin-1-yl]benzoic acid] the same measures were 3400 nM and 60.6 nM.
For `Cc1ccnc(N2CCN(C(=O)c3cc(C)nn3-c3ccccc3)CC2)c1` [Example E31, (5-Methyl-2-phenyl-2H-pyrazol-3-yl)[4-(4-methylpyrid-2-yl)piperazin-1-yl]methanone] the same measures were 1500 nM and 20.8 nM.
As to `Cc1cc(C(=O)N2CCN(c3cccc(NCc4ccccc4)c3)CC2)n(-c2ccccc2)n1` [Example E32, [4-(3-Phenylmethylaminophenyl)piperazin-1-yl](5-methyl-2-phenyl-2H-pyrazol-3-yl)methanone hydrochloride], the IC50 in experiment [1] worked out at 3100 nM; in experiment [2] (setting [3]), 514 nM.
With `Cc1cc(C(=O)N2CCN(c3cncc(Cl)c3)CC2)n(-c2ccccc2)n1` [Example E33, [4-(5-Chloro-3-pyridyl)piperazin-1-yl](5-methyl-2-phenyl-2H-pyrazol-3-yl)methanone], the IC50 is 900 nM in experiment [1] and 8.9 nM in experiment [2] (setting [3]).
On to `CNc1cccc(N2CCN(C(=O)c3cc(C)nn3-c3ccccc3)CC2)c1` [Example E34, [4-(3-Methylaminophenyl)piperazin-1-yl](5-methyl-2-phenyl-2H-pyrazol-3-yl)-methanone], for which the IC50 in experiment [1] was 800 nM; in experiment [2] (setting [3]), 14 nM.
The matching figures for `Cc1cc(C(=O)N2CCN(c3cccc(Cl)c3)CC2)n(-c2cnccn2)n1` [Example E36, [4-(3-Chlorophenyl)piperazin-1-yl](5-methyl-2-pyrazin-2-yl-2H-pyrazol-3-yl)-methanone]: 20000 nM and 939 nM.
The matching figures for `Cc1cc(C(=O)N2CCN(c3cccc(Cl)c3)CC2)n(-c2nccs2)n1` [Example E37, [4-(3-Chlorophenyl)piperazin-1-yl](5-methyl-2-thiazol-2-yl-2H-pyrazol-3-yl)-methanone]: 2000 nM and 37.7 nM.
The matching figures for `Cc1cc(C(=O)N2CCN(c3cccc(Cl)c3)CC2)n(-c2ncccc2C#N)n1` [Example E38, 2-{5-[4-(3-Chlorophenyl)piperazine-1-carbonyl]-3-methylpyrazol-1-yl}nicotinonitrile]: 4000 nM and 19.6 nM.
For the molecule `Cc1cc(C(=O)N2CCN(c3cccc(C(C)O)c3)CC2)n(-c2ccccc2)n1` (stereo not drawn) [Example E39, {4-[3-(1-Hydroxyethyl)phenyl]piperazin-1-yl}(5-methyl-2-phenyl-2H-pyrazol-3-yl)methanone hydrochloride], the IC50 in experiment [1] is 2500 nM; in experiment [2] (setting [3]) it was 71.9 nM.
For `Cc1cc(C(=O)N2CCN(c3cccc(C(=O)NCCO)c3)CC2)n(-c2ccccc2)n1` [Example E40, N-(2-Hydroxyethyl)-3-[4-(5-methyl-2-phenyl-2H-pyrazole-3-carbonyl)piperazin-1-yl]benzamide] the same measures were 1600 nM and 118 nM.
For `Cc1cc(C(=O)N2CCN(c3cccc(Cl)c3)CC2)n(-c2ccc(F)cc2F)n1` [Example E42, [4-(3-Chlorophenyl)piperazin-1-yl][2-(2,4-difluorophenyl)-5-methyl-2H-pyrazol-3-yl]methanone] the same measures were 2090 nM and 50.2 nM.
For `Cc1cc(C(=O)N2CCN(c3cccc(Cl)c3)CC2)n(-c2c(F)c(F)cc(F)c2F)n1` [Example E43, [4-(3-Chlorophenyl)piperazin-1-yl][5-methyl-2-(2,3,5,6-tetrafluorophenyl)-2H-pyrazol-3-yl]methanone] the same measures were 2170 nM and 1460 nM.
Consider `Cc1cc(C(=O)N2CCN(c3cccc(Cl)c3)CC2)n(-c2cc(Cl)ccc2Cl)n1` [Example E44, [4-(3-Chlorophenyl)piperazin-1-yl][2-(2,5-dichlorophenyl)-5-methyl-2H-pyrazol-3-yl]methanone], for which the IC50 in experiment [1] is 1680 nM; in experiment [2] (setting [3]), 236 nM.
